ChEMBL document CHEMBL4507295 (2021)

Columns and labels:
[1] = biological target: Phosphatidylinositol 3-kinase C2 domain-containing subunit gamma (Homo sapiens) (UniProt O75747); conditions: Compound concentration 1000.0 nM
[2] = biological target: Serine/threonine-protein kinase SBK1 (Homo sapiens) (UniProt Q52WX2); conditions: Compound concentration 1000.0 nM
[3] = biological target: Cyclin-dependent kinase 11A (Homo sapiens) (UniProt Q9UQ88); conditions: Compound concentration 1000.0 nM
[4] = biological target: Protein kinase C theta type (Homo sapiens) (UniProt Q04759); conditions: Compound concentration 1000.0 nM
[5] = tested on: Proto-oncogene tyrosine-protein kinase receptor Ret (Homo sapiens), P07949 [V804M]; conditions: Compound concentration 1000.0 nM
[6] = biological target: T1, D(4) dopamine receptor (Homo sapiens) (UniProt P21917); conditions: Compound concentration 10.0 uM
T1 sequence (whole entry): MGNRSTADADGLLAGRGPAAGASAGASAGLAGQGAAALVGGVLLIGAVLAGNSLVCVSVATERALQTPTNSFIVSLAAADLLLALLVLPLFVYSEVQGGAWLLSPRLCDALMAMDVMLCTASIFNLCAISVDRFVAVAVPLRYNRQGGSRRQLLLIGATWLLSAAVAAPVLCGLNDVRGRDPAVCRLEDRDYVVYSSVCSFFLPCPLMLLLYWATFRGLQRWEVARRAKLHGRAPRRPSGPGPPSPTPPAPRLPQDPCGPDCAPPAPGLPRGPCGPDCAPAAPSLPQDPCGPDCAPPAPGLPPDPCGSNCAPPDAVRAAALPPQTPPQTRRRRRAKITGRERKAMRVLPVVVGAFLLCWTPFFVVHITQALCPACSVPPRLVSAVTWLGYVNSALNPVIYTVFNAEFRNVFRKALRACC

[7] = biological target: T2, Muscarinic acetylcholine receptor M4 (Homo sapiens) (UniProt P08173); conditions: Compound concentration 10.0 uM
T2 sequence (whole entry): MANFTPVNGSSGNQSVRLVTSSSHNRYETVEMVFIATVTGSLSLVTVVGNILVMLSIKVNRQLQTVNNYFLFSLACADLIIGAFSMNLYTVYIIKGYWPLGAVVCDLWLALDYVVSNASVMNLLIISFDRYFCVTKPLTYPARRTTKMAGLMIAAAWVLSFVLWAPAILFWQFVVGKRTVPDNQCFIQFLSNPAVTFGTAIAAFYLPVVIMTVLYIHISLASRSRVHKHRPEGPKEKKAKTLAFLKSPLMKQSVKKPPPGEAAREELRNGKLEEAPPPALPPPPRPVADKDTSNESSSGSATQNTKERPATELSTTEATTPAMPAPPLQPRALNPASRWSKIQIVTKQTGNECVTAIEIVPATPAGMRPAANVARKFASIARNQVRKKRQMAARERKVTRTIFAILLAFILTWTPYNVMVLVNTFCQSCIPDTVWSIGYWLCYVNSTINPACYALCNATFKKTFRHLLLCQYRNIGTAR

[8] = biological target: T3, Muscarinic acetylcholine receptor M1 (Homo sapiens) (UniProt P11229); conditions: Compound concentration 10.0 uM
T3 sequence (whole entry): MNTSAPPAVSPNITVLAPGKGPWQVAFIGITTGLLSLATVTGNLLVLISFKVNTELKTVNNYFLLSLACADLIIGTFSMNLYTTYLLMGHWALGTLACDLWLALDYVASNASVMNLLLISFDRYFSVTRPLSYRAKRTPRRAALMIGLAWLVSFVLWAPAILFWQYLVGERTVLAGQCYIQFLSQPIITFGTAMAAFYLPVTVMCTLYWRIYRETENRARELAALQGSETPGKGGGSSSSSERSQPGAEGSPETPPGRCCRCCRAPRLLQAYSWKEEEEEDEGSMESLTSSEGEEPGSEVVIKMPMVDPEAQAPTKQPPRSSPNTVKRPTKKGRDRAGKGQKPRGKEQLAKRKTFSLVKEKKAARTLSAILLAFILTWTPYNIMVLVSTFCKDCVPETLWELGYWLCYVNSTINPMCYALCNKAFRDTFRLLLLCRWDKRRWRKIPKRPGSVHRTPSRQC

[9] = biological target: Mitogen-activated protein kinase 8 (Homo sapiens) (UniProt P45983); conditions: Compound concentration 1000.0 nM
[10] = biological target: Mitogen-activated protein kinase kinase kinase 6 (Homo sapiens) (UniProt O95382); conditions: Compound concentration 1000.0 nM
[11] = biological target: Tyrosine-protein kinase HCK (Homo sapiens) (UniProt P08631); conditions: Compound concentration 1000.0 nM
[12] = biological target: Macrophage colony-stimulating factor 1 receptor (Homo sapiens) (UniProt P07333); conditions: Compound concentration 1000.0 nM
[13] = biological target: Cyclin-dependent kinase 16 (Homo sapiens) (UniProt Q00536); conditions: Compound concentration 1000.0 nM
[14] = tested on: Leucine-rich repeat serine/threonine-protein kinase 2 (Homo sapiens), Q5S007 [G2019S]; conditions: Compound concentration 1000.0 nM
[15] = biological target: Microtubule-associated serine/threonine-protein kinase 1 (Homo sapiens) (UniProt Q9Y2H9); conditions: Compound concentration 1000.0 nM
[16] = biological target: Serine/threonine-protein kinase mTOR (Homo sapiens) (UniProt P42345); conditions: Compound concentration 1000.0 nM
[17] = biological target: Mitogen-activated protein kinase kinase kinase 3 (Homo sapiens) (UniProt Q99759); conditions: Compound concentration 1000.0 nM
[18] = biological target: 3-phosphoinositide-dependent protein kinase 1 (Homo sapiens) (UniProt O15530); conditions: Compound concentration 1000.0 nM
[19] = biological target: Phosphorylase b kinase regulatory subunit alpha, liver isoform (Homo sapiens) (UniProt P46019); conditions: Compound concentration 1000.0 nM
[20] = biological target: Ephrin type-A receptor 3 (Homo sapiens) (UniProt P29320); conditions: Compound concentration 1000.0 nM
[21] = biological target: MAP/microtubule affinity-regulating kinase 3 (Homo sapiens) (UniProt P27448); conditions: Compound concentration 1000.0 nM
[22] = biological target: Serine/threonine-protein kinase ULK2 (Homo sapiens) (UniProt Q8IYT8); conditions: Compound concentration 1000.0 nM
[23] = tested on: Tyrosine-protein kinase ABL1 (Homo sapiens), P00519 [F317I]; conditions: Compound concentration 1000.0 nM
[24] = biological target: Cyclin-dependent kinase 2 (Homo sapiens) (UniProt P24941); conditions: Compound concentration 1000.0 nM
[25] = biological target: Testis-specific serine/threonine-protein kinase 3 (Homo sapiens) (UniProt Q96PN8); conditions: Compound concentration 1000.0 nM
[26] = tested on: Tyrosine-protein kinase ABL1 (Homo sapiens), P00519 [Q252H]; conditions: Compound concentration 1000.0 nM

Sequence of Microtubule-associated serine/threonine-protein kinase 1 (Homo sapiens) (Q9Y2H9 whole entry, looked up): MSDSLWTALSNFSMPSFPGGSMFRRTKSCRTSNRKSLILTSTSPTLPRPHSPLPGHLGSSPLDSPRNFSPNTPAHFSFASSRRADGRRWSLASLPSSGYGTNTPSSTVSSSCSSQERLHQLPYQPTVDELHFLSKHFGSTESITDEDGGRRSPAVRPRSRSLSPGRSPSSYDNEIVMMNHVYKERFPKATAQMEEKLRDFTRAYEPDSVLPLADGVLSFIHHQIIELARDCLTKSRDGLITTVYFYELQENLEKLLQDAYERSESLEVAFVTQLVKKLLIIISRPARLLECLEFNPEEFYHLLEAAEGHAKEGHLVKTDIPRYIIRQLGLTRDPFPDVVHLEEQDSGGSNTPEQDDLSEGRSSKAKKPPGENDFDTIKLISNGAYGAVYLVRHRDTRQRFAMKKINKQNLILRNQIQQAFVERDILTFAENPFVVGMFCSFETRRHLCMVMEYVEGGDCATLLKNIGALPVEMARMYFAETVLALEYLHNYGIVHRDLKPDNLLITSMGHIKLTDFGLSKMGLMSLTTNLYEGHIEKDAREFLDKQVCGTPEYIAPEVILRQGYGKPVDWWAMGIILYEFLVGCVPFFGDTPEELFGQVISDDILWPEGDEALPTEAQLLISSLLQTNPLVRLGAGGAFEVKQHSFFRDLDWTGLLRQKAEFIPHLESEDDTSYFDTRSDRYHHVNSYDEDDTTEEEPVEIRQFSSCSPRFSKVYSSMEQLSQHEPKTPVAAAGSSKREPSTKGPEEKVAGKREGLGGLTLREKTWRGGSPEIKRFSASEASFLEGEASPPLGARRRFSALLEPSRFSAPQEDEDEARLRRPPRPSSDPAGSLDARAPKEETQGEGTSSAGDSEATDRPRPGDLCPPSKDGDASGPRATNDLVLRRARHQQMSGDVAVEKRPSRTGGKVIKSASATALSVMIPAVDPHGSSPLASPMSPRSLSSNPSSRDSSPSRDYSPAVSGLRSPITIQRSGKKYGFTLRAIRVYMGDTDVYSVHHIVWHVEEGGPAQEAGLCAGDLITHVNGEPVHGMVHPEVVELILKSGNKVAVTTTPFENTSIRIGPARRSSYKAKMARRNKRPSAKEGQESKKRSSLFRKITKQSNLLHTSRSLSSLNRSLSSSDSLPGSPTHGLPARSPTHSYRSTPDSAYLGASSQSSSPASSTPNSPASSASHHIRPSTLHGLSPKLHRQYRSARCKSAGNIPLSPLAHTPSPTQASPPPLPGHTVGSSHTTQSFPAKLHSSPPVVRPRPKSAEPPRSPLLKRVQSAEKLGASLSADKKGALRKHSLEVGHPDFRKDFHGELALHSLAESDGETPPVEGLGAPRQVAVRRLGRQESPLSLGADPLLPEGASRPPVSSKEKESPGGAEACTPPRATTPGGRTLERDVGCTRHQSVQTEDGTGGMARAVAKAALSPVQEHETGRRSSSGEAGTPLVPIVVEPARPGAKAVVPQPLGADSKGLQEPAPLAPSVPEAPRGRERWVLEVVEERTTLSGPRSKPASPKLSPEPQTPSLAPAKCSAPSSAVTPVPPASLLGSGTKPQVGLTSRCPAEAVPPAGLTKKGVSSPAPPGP
Sequence of Cyclin-dependent kinase 16 (Homo sapiens) (Q00536 whole entry): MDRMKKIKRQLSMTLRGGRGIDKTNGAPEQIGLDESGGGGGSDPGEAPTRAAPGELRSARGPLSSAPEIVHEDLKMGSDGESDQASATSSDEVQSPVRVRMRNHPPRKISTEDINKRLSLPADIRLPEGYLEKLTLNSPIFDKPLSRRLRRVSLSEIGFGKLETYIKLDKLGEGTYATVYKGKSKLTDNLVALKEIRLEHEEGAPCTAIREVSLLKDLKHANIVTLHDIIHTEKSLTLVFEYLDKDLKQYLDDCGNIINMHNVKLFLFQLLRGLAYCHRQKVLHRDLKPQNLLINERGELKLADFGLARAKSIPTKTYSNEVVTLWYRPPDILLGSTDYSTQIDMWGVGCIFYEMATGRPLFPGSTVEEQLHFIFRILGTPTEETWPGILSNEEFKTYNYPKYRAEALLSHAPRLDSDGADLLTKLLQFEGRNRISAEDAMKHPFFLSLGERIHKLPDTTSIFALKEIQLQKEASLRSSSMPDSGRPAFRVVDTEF
Sequence of Serine/threonine-protein kinase SBK1 (Homo sapiens) (Q52WX2 whole entry): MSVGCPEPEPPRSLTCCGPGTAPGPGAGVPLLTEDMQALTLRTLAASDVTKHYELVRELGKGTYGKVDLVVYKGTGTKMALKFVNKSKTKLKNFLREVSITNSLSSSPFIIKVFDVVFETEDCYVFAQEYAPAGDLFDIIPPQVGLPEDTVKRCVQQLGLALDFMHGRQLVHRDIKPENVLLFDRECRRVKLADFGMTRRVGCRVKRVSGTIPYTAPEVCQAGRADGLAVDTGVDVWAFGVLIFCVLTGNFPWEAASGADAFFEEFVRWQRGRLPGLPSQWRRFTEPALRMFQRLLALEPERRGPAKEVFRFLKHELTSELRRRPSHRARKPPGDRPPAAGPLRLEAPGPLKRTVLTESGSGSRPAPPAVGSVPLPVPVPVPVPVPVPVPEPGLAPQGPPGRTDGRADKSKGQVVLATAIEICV
Sequence of Phosphatidylinositol 3-kinase C2 domain-containing subunit gamma (Homo sapiens) (O75747 whole entry, the tested form may be a part): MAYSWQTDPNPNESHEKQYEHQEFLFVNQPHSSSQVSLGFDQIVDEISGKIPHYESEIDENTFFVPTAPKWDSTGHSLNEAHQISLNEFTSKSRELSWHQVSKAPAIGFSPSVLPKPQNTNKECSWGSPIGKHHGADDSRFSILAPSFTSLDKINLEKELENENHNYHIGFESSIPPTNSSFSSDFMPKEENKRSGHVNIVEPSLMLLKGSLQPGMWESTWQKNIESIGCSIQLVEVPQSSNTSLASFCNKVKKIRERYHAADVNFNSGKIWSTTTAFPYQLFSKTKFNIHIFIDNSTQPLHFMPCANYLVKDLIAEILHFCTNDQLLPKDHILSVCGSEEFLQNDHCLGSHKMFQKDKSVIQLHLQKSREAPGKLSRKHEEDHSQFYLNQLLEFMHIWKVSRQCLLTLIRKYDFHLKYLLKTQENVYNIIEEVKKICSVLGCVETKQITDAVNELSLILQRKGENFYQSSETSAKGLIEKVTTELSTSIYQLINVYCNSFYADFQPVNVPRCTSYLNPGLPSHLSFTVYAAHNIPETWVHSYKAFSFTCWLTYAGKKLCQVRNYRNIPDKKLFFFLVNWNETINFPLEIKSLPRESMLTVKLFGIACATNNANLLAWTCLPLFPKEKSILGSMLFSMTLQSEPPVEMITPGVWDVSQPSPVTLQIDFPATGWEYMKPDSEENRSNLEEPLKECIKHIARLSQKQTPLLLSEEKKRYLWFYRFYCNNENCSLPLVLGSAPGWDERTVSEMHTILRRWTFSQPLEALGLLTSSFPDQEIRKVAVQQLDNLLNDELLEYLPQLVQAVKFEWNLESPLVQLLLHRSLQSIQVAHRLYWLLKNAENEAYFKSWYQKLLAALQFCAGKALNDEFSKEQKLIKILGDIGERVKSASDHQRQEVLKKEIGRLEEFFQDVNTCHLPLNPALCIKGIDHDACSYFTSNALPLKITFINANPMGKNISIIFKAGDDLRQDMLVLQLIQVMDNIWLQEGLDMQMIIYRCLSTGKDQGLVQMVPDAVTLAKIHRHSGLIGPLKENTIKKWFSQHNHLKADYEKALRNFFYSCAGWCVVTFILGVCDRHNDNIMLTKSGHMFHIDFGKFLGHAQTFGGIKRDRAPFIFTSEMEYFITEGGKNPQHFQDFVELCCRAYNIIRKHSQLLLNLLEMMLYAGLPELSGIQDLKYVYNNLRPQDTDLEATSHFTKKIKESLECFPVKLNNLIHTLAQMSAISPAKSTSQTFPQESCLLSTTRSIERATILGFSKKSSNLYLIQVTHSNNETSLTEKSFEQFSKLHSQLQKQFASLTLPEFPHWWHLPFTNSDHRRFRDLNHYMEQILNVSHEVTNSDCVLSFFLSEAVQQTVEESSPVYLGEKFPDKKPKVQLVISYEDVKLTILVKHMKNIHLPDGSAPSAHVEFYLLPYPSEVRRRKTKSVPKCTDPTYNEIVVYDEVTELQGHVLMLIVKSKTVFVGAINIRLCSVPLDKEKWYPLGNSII
Sequence of Serine/threonine-protein kinase ULK2 (Homo sapiens) (Q8IYT8 whole entry): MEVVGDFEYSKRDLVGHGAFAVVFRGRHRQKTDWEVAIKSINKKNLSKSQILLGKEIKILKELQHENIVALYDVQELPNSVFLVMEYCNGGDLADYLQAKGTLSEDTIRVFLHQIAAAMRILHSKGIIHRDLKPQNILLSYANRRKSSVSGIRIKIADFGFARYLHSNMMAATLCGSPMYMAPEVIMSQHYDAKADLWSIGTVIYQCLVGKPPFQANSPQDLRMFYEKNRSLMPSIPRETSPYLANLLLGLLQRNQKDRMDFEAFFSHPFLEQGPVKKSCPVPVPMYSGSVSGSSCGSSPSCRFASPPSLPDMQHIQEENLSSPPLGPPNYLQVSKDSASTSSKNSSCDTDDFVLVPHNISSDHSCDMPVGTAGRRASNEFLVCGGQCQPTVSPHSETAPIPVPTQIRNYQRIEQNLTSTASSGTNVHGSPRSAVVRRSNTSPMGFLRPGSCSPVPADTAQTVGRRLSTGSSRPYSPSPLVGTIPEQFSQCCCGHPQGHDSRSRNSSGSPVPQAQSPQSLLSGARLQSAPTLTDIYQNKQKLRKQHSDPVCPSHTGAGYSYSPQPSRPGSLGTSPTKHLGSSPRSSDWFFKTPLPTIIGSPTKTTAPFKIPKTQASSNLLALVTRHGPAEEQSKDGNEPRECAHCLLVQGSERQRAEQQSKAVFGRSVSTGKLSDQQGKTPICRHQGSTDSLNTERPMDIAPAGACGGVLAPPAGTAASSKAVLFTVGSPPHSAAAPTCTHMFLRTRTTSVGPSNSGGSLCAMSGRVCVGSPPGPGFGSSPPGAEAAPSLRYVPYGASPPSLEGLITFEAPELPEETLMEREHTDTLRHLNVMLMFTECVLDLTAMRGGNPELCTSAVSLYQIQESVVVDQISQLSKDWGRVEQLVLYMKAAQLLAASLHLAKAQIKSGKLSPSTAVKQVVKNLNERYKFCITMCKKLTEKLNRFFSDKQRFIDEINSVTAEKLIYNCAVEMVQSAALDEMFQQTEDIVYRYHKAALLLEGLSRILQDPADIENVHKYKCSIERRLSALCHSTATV

N#CC1(c2ccccn2)CCN(Cc2cc(C(=O)N3CCCC3)c(=O)n3ccccc23)CC1
inactive: residual activity [1] 73% | residual activity [2] 89% | residual activity [3] 93% | residual activity [4] 100% | residual activity [5] 95% | inhibition [6] -8.64% | inhibition [7] -8.87% | inhibition [8] -2.01% | residual activity [9] 96% | residual activity [10] 100% | residual activity [11] 100% | residual activity [12] 94% | residual activity [13] 100% | residual activity [14] 100% | residual activity [15] 82% | residual activity [16] 58% | residual activity [17] 92% | residual activity [18] 81% | residual activity [19] 85% | residual activity [20] 100% | residual activity [21] 87% | residual activity [22] 92% | residual activity [23] 75% | residual activity [24] 86% | residual activity [25] 100% | residual activity [26] 97%

N#CC1(c2ccccn2)CCN(Cc2cc(C(=O)O)c(=O)n3ccccc23)CC1 [MSD-M1PAM]
inactive: residual activity [1] 97% | residual activity [2] 83% | residual activity [3] 100% | residual activity [4] 96% | residual activity [5] 92% | inhibition [6] -8.33% | inhibition [7] -2.36% | inhibition [8] -1% | residual activity [9] 85% | residual activity [10] 100% | residual activity [11] 100% | residual activity [12] 95% | residual activity [13] 67% | residual activity [14] 100% | residual activity [15] 50% | residual activity [16] 90% | residual activity [17] 77% | residual activity [18] 100% | residual activity [19] 100% | residual activity [20] 75% | residual activity [21] 100% | residual activity [22] 93% | residual activity [23] 81% | residual activity [24] 100% | residual activity [25] 100% | residual activity [26] 89%
